Laboratory results reported in patent US6344479B1, “Method of preventing retinopathy of prematurity in a neonate” (Farmacon-Il, LLC, priority 2001, dated 2002).

Experiments:
prematurely born infants = assay: Clinical study: development of retinopathy of prematurity (ROP) in premature neonates given NSAID; assay type: in vivo, human; conditions: for Max ROP grades: data as means per treatment group; for ROP: No (number of neonates without ROP) / ROP: Yes (number of neonates with any ROP): data as numbers of neonates per treatment group, i.v. postnatal treatment, gestation no more than 31 weeks
Protocol: A clinical study was carried out at the Neonatology Unit of University Hospital, Antwerp, Belgium.
Patients and Methods: 229 prematurely born infants were included in the study. All infants were born after a gestation period of no more than 31 weeks and all infants survived for a period of at least 21 days. Prospective serial retinal observation were performed by pediatric ophthalmologist starting at a postmenstrual age of 33 weeks. Evaluation for ROP in both eyes included staging and extension of disease, zone of involvement, number of clock hours, and the presence of any additional disease.

mouse = conditions: administered concurrently with the injury phase; normal growth not affected; cited from earlier work

COc1ccc2c(c1)c(CC(=O)O)c(C)n2C(=O)c1ccc(Cl)cc1 [Indomethacin, indomethacin]
Max ROP grades (prematurely born infants): 1 units | ROP: No (number of neonates without ROP) (prematurely born infants): 32 | ROP: Yes (number of neonates with any ROP) (prematurely born infants): 30 | Effect on oxygen-induced retinopathy (in words) (mouse): improved oxygen-induced retinopathy

CC(C)Cc1ccc(C(C)C(=O)O)cc1 (centres unmarked) [Ibuprofen, ibuprofen lysinate]
Max ROP grades (prematurely born infants): 0.26 units | ROP: No (number of neonates without ROP) (prematurely born infants): 26 | ROP: Yes (number of neonates with any ROP) (prematurely born infants): 5 | Risk of developing ROP (in words) (prematurely born infants; postnatal administration, independently of other studied neonatal risk factors): significantly reduced
